# Experimental data reported in patent US9233971B2, “Lipomacrocycles and uses thereof” (priority 2010, dated 2016).
# Key:
# SSB mRNA in liver [1] = test: In vivo gene knockdown, liposomal siRNA formulation (Example 3), SSB siRNA; set-up: species or system CD1 mice; settings: for Targeted mRNA remain in liver: liposomal formulation, SSB siRNA, dose 3.2 mg/kg intravenously, CD1 mice, liver harvested three days later, real-time RT-PCR, GAPDH reference
# Protocol: Each liposome formulation was made by mixing lipids of each lipomacrocycle compound (Table 1) combined with DSPC, DMG-PEG 2K, and cholesterol at the weight ratio of 3.85:0.42:0.21:0.79 in ethanol and siRNA in water. Then 5% dextrose water was added in each formulation before dosing to mice.
# (§1) All procedures used in animal studies conducted were approved by the Institutional Animal Care and Use Committee (IACUC) and were consistent with local, state and federal regulations as applicable. Mice, rats, and rabbits received siRNA formulations intravenously at dose volume of 0.2 ml, 1 ml, or 10 ml, respectively. Animals were sacrificed 2 to 7 days later. Tissues were harvested and mRNA was isolated with Turbocapture kit (Qiagen) for analyzing change of gene expression with real-time RT-PCR method (SensiMix SYBR One-Step Kit, Bioline). Serum was harvested for analyzing blood chemistry.
# (§2) CD1 mice were dosed with lipid particle (Table 1) or liposome (Table 2) siRNA formulation intravenousely and the different tissues were harvested three days later. The gene expression was analyzed with real-time RT-PCR method (for liver, GAPDH as reference gene; for lung and bone marrow, GAPDG and β-actin as reference genes).
# SSB mRNA in liver [2] = test: In vivo gene knockdown, lipid particle siRNA formulation (Example 4), SSB siRNA; settings: lipid particles, CD1 mice, liver harvested three days later, real-time RT-PCR, GAPDH reference
# Protocol: (§3) Lipid Particle formulations were made by first mixed siRNA in an aqueous solution with DOTMA in organic solvent to produce a water-insoluble precipitate. After isolating and drying the precipitate, the precipitate was dissolved in chloroform and further mixed with other lipids as following: Each lipid particle formulation was consisting of 1 part DOTMA+siRNA complex/5 parts any lipomacrocycle compound (Table 1)/1.5 parts N 6-tetrakis (3-aminopropyl)-1,3-propanediamine cholesteryl carbamate/2.2 parts 1,2-dilinoleoyl-sn-glycero-3-phosphoethanolamine/10.08 parts cholesterol PEG-660/4.32 parts cholesterol PEG-660/0.6 parts cholesterol (weight/weight). All the components were dissolved in chloroform and mixed together. Then, the mixtures were dried overnight in Speedvac. The dried formulations were hydrated by adding in certain amount of 5% dextrose water before dosing to animals intravenously.
# as §1, §2
# APOB mRNA in liver = test: In vivo gene knockdown, lipid particle siRNA formulation (Example 4), APOB siRNA; set-up: species or system CD1 mice; settings: for Targeted mRNA remain in liver: lipid particles, APOB siRNA, CD1 mice, liver harvested three days later, real-time RT-PCR, GAPDH reference
# Protocol: as §3, §1, §2
SMILES,Targeted mRNA remain in liver (SSB mRNA in liver [1]),further results
CCCCCCCCCCC(O)CN(CCCN(CCCN(CC(O)CCCCCCCCCC)CC(O)CCCCCCCCCC)CCCN(CC(O)CCCCCCCCCC)CC(O)CCCCCCCCCC)CC(O)CCCCCCCCCC (centres unmarked) [TaC4],0.12,
CCCCCCCCCCCCC(O)CN1CCN(CC(O)CCCCCCCCCCCC)CCN(CC(O)CCCCCCCCCCCC)CCN(CC(O)CCCCCCCCCCCC)CC1 (centres unmarked) [Compound T2C6],0.66,Targeted mRNA remain in liver (SSB mRNA in liver [2]; dose 3.2 mg/kg intravenously): 0.86
CCCCC(CC)COCC(O)CN(CCCN(CC(O)COCC(CC)CCCC)CC(O)COCC(CC)CCCC)CCCN(CC(O)COCC(CC)CCCC)CC(O)COCC(CC)CCCC (centres unmarked) [Compound D1C3],0.18,
CCCCC(CC)COCC(O)CN(CCN(CCN(CC(O)COCC(CC)CCCC)CC(O)COCC(CC)CCCC)CCN(CC(O)COCC(CC)CCCC)CC(O)COCC(CC)CCCC)CC(O)COCC(CC)CCCC (centres unmarked) [Compound T5C3],0.43,
CCCCCCCCCCCCOCC(O)CN1CCN(CC(O)COCCCCCCCCCCCC)CCN(CC(O)COCCCCCCCCCCCC)CCN(CC(O)COCCCCCCCCCCCC)CCN(CC(O)COCCCCCCCCCCCC)CCN(CC(O)COCCCCCCCCCCCC)CC1 (centres unmarked) [Compound M10C8],,"Targeted mRNA remain in liver (APOB mRNA in liver; dose 1 mg/kg intravenously): 0.06; performance of the lipid molecules, best compounds (APOB mRNA in liver; ranking based on the results of Table 1 (lipid particles, APOB and SSB siRNA)): best"
CCCCCCCCCCOCC(O)CN(CCCN(CCCN(CC(O)COCCCCCCCCCC)CC(O)COCCCCCCCCCC)CCCN(CC(O)COCCCCCCCCCC)CC(O)COCCCCCCCCCC)CC(O)COCCCCCCCCCC (centres unmarked) [TaC2],0.13,
CCCCCCCCCCCCCCC(O)CN1CCN(Cc2ccccc2)CCN(CC(O)CCCCCCCCCCCCCC)CCN(CC(O)CCCCCCCCCCCCCC)CC1 (centres unmarked) [Compound M1C7],0.47,Targeted mRNA remain in liver (SSB mRNA in liver [2]; dose 3.2 mg/kg intravenously): 0.35
CCCCCCCCCCCCC(O)CN(CCCN(CCCN(CC(O)CCCCCCCCCCCC)CC(O)CCCCCCCCCCCC)CCCN(CC(O)CCCCCCCCCCCC)CC(O)CCCCCCCCCCCC)CC(O)CCCCCCCCCCCC (centres unmarked) [TaC6],0.17,
CCCCCCCCCCC(O)CN1CCN(CC(O)CCCCCCCCCC)CCN(CC(O)CCCCCCCCCC)CCN(CC(O)CCCCCCCCCC)CCN(CC(O)CCCCCCCCCC)CCN(CC(O)CCCCCCCCCC)CC1 (centres unmarked) [Compound M10C4],,Targeted mRNA remain in liver (SSB mRNA in liver [2]; dose 3 mg/kg intravenously): 0.63
CCCCC(CC)COCC(O)CN(CCCN(CCCCN(CCCN(CC(O)COCC(CC)CCCC)CC(O)COCC(CC)CCCC)CCCN(CC(O)COCC(CC)CCCC)CC(O)COCC(CC)CCCC)CCCN(CC(O)COCC(CC)CCCC)CC(O)COCC(CC)CCCC)CC(O)COCC(CC)CCCC (centres unmarked) [Compound T4C3],0.12,
CCCCCCCCCCCCCCOCC(O)CN(CCCN(C)CCCN(CC(O)COCCCCCCCCCCCCCC)CC(O)COCCCCCCCCCCCCCC)CC(O)COCCCCCCCCCCCCCC (centres unmarked) [Compound B1C1],0.13,Targeted mRNA remain in liver (APOB mRNA in liver; dose 0.8 mg/kg intravenously): 0.82
CCCCCCCCCCOCC(O)CN(CCCN(CCCN(CC(O)COCCCCCCCCCC)CC(O)COCCCCCCCCCC)CC(O)COCCCCCCCCCC)CCCN(CC(O)COCCCCCCCCCC)CC(O)COCCCCCCCCCC (centres unmarked) [NsC2],0.1,
CCCCC(CC)COCC(O)CN1CCN(CC(O)COCC(CC)CCCC)CCN(CC(O)COCC(CC)CCCC)CCN(CC(O)COCC(CC)CCCC)CCN(CC(O)COCC(CC)CCCC)CCN(CC(O)COCC(CC)CCCC)CC1 (centres unmarked) [Compound M10C3],,Targeted mRNA remain in liver (SSB mRNA in liver [2]; dose 3 mg/kg intravenously): 0.43
CCCCCCCCCCCCCCOCC(O)CN1CCN(Cc2ccccc2)CCN(CC(O)COCCCCCCCCCCCCCC)CCN(Cc2ccccc2)CC1 (centres unmarked) [Compound M6C1],0.98,Targeted mRNA remain in liver (SSB mRNA in liver [2]; dose 3.2 mg/kg intravenously): 0.64
CCCCCCCCCCOCC(O)CN(CCCN(C)CCCN(CC(O)COCCCCCCCCCC)CC(O)COCCCCCCCCCC)CC(O)COCCCCCCCCCC (centres unmarked) [Compound B1C2],0.68,
CCCCCCCCCCC(O)CN(CCN(CCN(CC(O)CCCCCCCCCC)CC(O)CCCCCCCCCC)CCN(CC(O)CCCCCCCCCC)CC(O)CCCCCCCCCC)CC(O)CCCCCCCCCC (centres unmarked) [Compound T5C4],0.41,
CCCCCCCCCCC(O)CN(CCCN(CCCN(CC(O)CCCCCCCCCC)CC(O)CCCCCCCCCC)CC(O)CCCCCCCCCC)CCCN(CC(O)CCCCCCCCCC)CC(O)CCCCCCCCCC (centres unmarked) [NsC4],0.13,

SMILES,Targeted mRNA remain in liver (SSB mRNA in liver [1]),further results
CCCCC(CC)COCC(O)CN1CCN(Cc2ccccc2)CCN(CC(O)COCC(CC)CCCC)CCN(CC(O)COCC(CC)CCCC)CC1 (centres unmarked) [Compound M1C3],0.64,
CCCCCCCCCCCCC(O)CN(CCN(C)CCN(CC(O)CCCCCCCCCCCC)CC(O)CCCCCCCCCCCC)CC(O)CCCCCCCCCCCC (centres unmarked) [MdC6],1.1,
CCCCCCCCCCCCCCCCC(O)CN1CCN(Cc2ccccc2)CCN(CC(O)CCCCCCCCCCCCCCCC)CCN(CC(O)CCCCCCCCCCCCCCCC)CC1 (centres unmarked) [Compound M1C5],0.6,
CCCCCCCCCCCCCCC(O)CN(CCN(C)CCN(CC(O)CCCCCCCCCCCCCC)CC(O)CCCCCCCCCCCCCC)CC(O)CCCCCCCCCCCCCC (centres unmarked) [MdC7],0.25,
CCCCCCCCCCCCCCCCC(O)CN(CCN(C)CCN(CC(O)CCCCCCCCCCCCCCCC)CC(O)CCCCCCCCCCCCCCCC)CC(O)CCCCCCCCCCCCCCCC (centres unmarked) [MdC5],0.45,
CC(C)CCC[C@@H](C)[C@H]1CC[C@H]2[C@@H]3CC=C4C[C@@H](OC(=O)NCCN(CCN)CCN)CC[C@]4(C)[C@H]3CC[C@]12C [Compound T5ch1],,Targeted mRNA remain in liver (APOB mRNA in liver; dose 3 mg/kg intravenously): 0.39
CCCCCCCCCCCCCCC(O)CN(CCCN(CC(O)CCCCCCCCCCCCCC)CC(O)CCCCCCCCCCCCCC)CCCN(CC(O)CCCCCCCCCCCCCC)CC(O)CCCCCCCCCCCCCC (centres unmarked) [Compound D1C7],0.52,
CC(C)CCC[C@@H](C)[C@H]1CC[C@H]2[C@@H]3CC=C4C[C@@H](OC(=O)N5CCNCCNCCNCCNCCNCC5)CC[C@]4(C)[C@H]3CC[C@]12C [Compound M10ch1],,Targeted mRNA remain in liver (APOB mRNA in liver; dose 3 mg/kg intravenously): 0.39
CCCCCCCCCCOCC(O)CN(CCCN1CCN(CCCN(CC(O)COCCCCCCCCCC)CC(O)COCCCCCCCCCC)CC1)CC(O)COCCCCCCCCCC (centres unmarked) [Compound B2C2],0.36,
CCCCCCCCCCCCCCOCC(O)CN(CCN(CCN(CC(O)COCCCCCCCCCCCCCC)CC(O)COCCCCCCCCCCCCCC)CCN(CC(O)COCCCCCCCCCCCCCC)CC(O)COCCCCCCCCCCCCCC)CC(O)COCCCCCCCCCCCCCC (centres unmarked) [Compound T5C1],0.13,
CCCCCCCCCCCCC(O)CN1CCN(Cc2ccccc2)CCN(CC(O)CCCCCCCCCCCC)CCN(Cc2ccccc2)CC1 (centres unmarked) [Compound M6C6],0.8,
CCCCCCCCCCCCCCC(O)CN(CCCN(CCCN(CC(O)CCCCCCCCCCCCCC)CC(O)CCCCCCCCCCCCCC)CCCN(CC(O)CCCCCCCCCCCCCC)CC(O)CCCCCCCCCCCCCC)CC(O)CCCCCCCCCCCCCC (centres unmarked) [TaC7],0.33,
CC(C)CCC[C@@H](C)[C@H]1CC[C@H]2[C@@H]3CC=C4C[C@@H](OC(=O)N5CCN(Cc6ccccc6)CCNCCN(Cc6ccccc6)CC5)CC[C@]4(C)[C@H]3CC[C@]12C [Compound M6ch1],,Targeted mRNA remain in liver (APOB mRNA in liver; dose 3 mg/kg intravenously): 0.86
CCCCCCCCCCCCCCC(O)CN(CCCN(CCCN(CC(O)CCCCCCCCCCCCCC)CC(O)CCCCCCCCCCCCCC)CC(O)CCCCCCCCCCCCCC)CCCN(CC(O)CCCCCCCCCCCCCC)CC(O)CCCCCCCCCCCCCC (centres unmarked) [NsC7],0.1,
CCCCCCCCCCCCC(O)CN(CCCN1CCN(CCCN(CC(O)CCCCCCCCCCCC)CC(O)CCCCCCCCCCCC)CC1)CC(O)CCCCCCCCCCCC (centres unmarked) [Compound B2C6],0.08,"performance of the lipid molecules, best performing compounds (SSB mRNA in liver [1]; ranking based on the results of Table 2 (liposomal formulation, SSB and APOB siRNA)): best performing"
CCCCC(CC)COCC(O)CN(CCN(C)CCN(CC(O)COCC(CC)CCCC)CC(O)COCC(CC)CCCC)CC(O)COCC(CC)CCCC (centres unmarked) [MdC3],0.24,
CCCCCCCCCCCCCCOCC(O)CN(CCCN(CCCN(CC(O)COCCCCCCCCCCCCCC)CC(O)COCCCCCCCCCCCCCC)CCCN(CC(O)COCCCCCCCCCCCCCC)CC(O)COCCCCCCCCCCCCCC)CC(O)COCCCCCCCCCCCCCC (centres unmarked) [TaC1],0.1,Targeted mRNA remain in liver (APOB mRNA in liver; dose 0.8 mg/kg intravenously): 0.81
